Reference: PubChem BioAssay AID2060487 (Molecular Pharmacology Branch, DTP, NCI, 2025)

Test system: 997537-175-T-J1-PDC complex spheroid viability
Assay: Anticancer human tumor 997537-175-T-J1-PDC patient-derived colon adenocarcinoma cell line growth inhibition [GQUAD]
Conditions: for IC50: curve of first compound; for viability, T/C: stronger effect = lower value
Procedure, shortened: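 Viability of tumor cells grown as complex spheroids with endothelial and stromal cells, exposed to drug combinations. Top concentration at or near clinical Cmax (else 10 microM), diluted in half-log increments.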
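Further: spheroids exposed to the agents for 7 days.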
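Wherever viability, T/C is given: 100% = DMSO vehicle control viability.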

C#Cc1c(F)ccc2cc(O)cc(-c3ncc4c(N5CC6CCC(C5)N6)nc(OCC56CCCN5CC(F)C6)nc4c3F)c12 (configuration not stated) + CN(C)c1ccc(Nc2c3ccc(NC(=O)CCN4CCCC4)cc3nc3cc(NC(=O)CCN4CCCC4)ccc23)cc1
IC50 (second compound 0.0316 µM): > 10 µM
IC50 (second compound 0.1 µM): > 10 µM
IC50 (second compound 0.316 µM): > 10 µM
IC50 (second compound 1 µM): > 10 µM
IC50 (second compound 3.16 µM): > 10 µM
IC50 (second compound 10 µM): > 10 µM
viability, T/C (second compound 0.0316 µM, first compound 0.0316 µM): 102%
viability, T/C (second compound 0.0316 µM, first compound 0.1 µM): 97.8%
viability, T/C (second compound 0.0316 µM, first compound 0.316 µM): 98.9%
viability, T/C (second compound 0.0316 µM, first compound 1 µM): 91.1%
viability, T/C (second compound 0.0316 µM, first compound 3.16 µM): 87.1%
viability, T/C (second compound 0.0316 µM, first compound 10 µM): 107%
viability, T/C (second compound 0.1 µM, first compound 0.0316 µM): 97.7%
viability, T/C (second compound 0.1 µM, first compound 0.1 µM): 89.4%
viability, T/C (second compound 0.1 µM, first compound 0.316 µM): 92.6%
viability, T/C (second compound 0.1 µM, first compound 1 µM): 65.7%
viability, T/C (second compound 0.1 µM, first compound 3.16 µM): 110%
viability, T/C (second compound 0.1 µM, first compound 10 µM): 106%
viability, T/C (second compound 0.316 µM, first compound 0.0316 µM): 97.2%
viability, T/C (second compound 0.316 µM, first compound 0.1 µM): 104%
viability, T/C (second compound 0.316 µM, first compound 0.316 µM): 103%
viability, T/C (second compound 0.316 µM, first compound 1 µM): 83.4%
viability, T/C (second compound 0.316 µM, first compound 3.16 µM): 103%
viability, T/C (second compound 0.316 µM, first compound 10 µM): 105%
viability, T/C (second compound 1 µM, first compound 0.0316 µM): 89.5%
viability, T/C (second compound 1 µM, first compound 0.1 µM): 93.3%
viability, T/C (second compound 1 µM, first compound 0.316 µM): 92%
viability, T/C (second compound 1 µM, first compound 1 µM): 82.9%
viability, T/C (second compound 1 µM, first compound 3.16 µM): 101%
viability, T/C (second compound 1 µM, first compound 10 µM): 108%
viability, T/C (second compound 3.16 µM, first compound 0.0316 µM): 69.6%
viability, T/C (second compound 3.16 µM, first compound 0.1 µM): 97%
viability, T/C (second compound 3.16 µM, first compound 0.316 µM): 103%
viability, T/C (second compound 3.16 µM, first compound 1 µM): 106%
viability, T/C (second compound 3.16 µM, first compound 3.16 µM): 106%
viability, T/C (second compound 3.16 µM, first compound 10 µM): 124%
viability, T/C (second compound 10 µM, first compound 0.0316 µM): 86.8%
viability, T/C (second compound 10 µM, first compound 0.1 µM): 101%
viability, T/C (second compound 10 µM, first compound 0.316 µM): 106%
viability, T/C (second compound 10 µM, first compound 1 µM): 106%
viability, T/C (second compound 10 µM, first compound 3.16 µM): 114%
viability, T/C (second compound 10 µM, first compound 10 µM): 113%
